Test results: US6150350A, “Antimicrobial compositions” (Hoffman-la Roche Inc., priority 1997, dated 2000)
In brackets after ≈: the same amount, converted by molar mass. Where a name gives a salt, the structure may show the parent alone.

Tests used:
[1] = system: 17 highly resistant MRSA strains; test: In vitro activity: minimum inhibitory concentration (MIC) by the agar dilution method in Mueller Hinton agar, 17 highly resistant MRSA strains; type: cell-based, Methicillin resistant Staphylococcus aureus (MRSA); details: inoculum =10^5 CFU/spot
Experimental: In vitro activity was determined by minimum inhibitory concentration (MIC) by the agar dilution method in Mueller Hinton agar inoculum =10^5 CFU/spot.

[2] = system: MRSA; details: alone; in words; cited from earlier work
[3] = system: β-lactamase; details: in words; cited from earlier work
[4] = system: Gram-positive and Gram negative pathogens; details: carbapenems alone; in words; cited from earlier work

Structure (SMILES)	MIC50 ([1]; Table 1, substance alone) [µg/mL]	MIC90 ([1]; Table 1, substance alone) [µg/mL]	range of MIC ([1]; Table 1, substance alone) [µg/mL]	activity against MRSA [2]	β-lactamase inhibition [3]	spectrum of antibacterial activity [4]	MIC50 ([1]; Table 2, substance alone) [µg/mL]	MIC90 ([1]; Table 2, substance alone) [µg/mL]	range of MIC ([1]; Table 2, substance alone) [µg/mL]
CO/N=C(\C(=O)N[C@@H]1C(=O)N2C(C(=O)O)=C(CSc3nc(=O)c(=O)[nH]n3C)CS[C@H]12)c1csc(N)n1 [Ceftriaxone, reference compound]	> 64	> 64	> 64	–	–	–	–	–	–
C[C@@H](O)[C@H]1C(=O)N2C(C(=O)O)=C(S[C@@H]3CN[C@H](C(=O)N(C)C)C3)[C@H](C)[C@H]12 [Meropenem]	> 16	> 16	–	do not have good activity against MRSA	good β-lactamase inhibitors	broad spectrum of antibacterial activity	–	–	–
Cc1cc(=O)c(C(=O)N[C@@H](C(=O)N[C@@H]2C(=O)N3C(C(=O)O)=C(CSc4nnnn4C)CS[C@H]23)c2ccc(O)cc2)c[nH]1 [Cefpiramid, reference compound]	> 64	> 64	> 64	–	–	–	–	–	–
O=C(C[n+]1ccc(CN2CC/C(=C\C3=C(C(=O)[O-])N4C(=O)[C@@H](NC(=O)CSc5ccncc5)[C@H]4SC3)C2=O)cc1)Nc1ccc(O)cc1 [Ex. 4, (E)-(6R,7R)-3-[1-[1-[(4-Hydroxy-phenylcarbamoyl)-methyl]-pyridin-1-ium-4-ylmethyl]-2-oxo-pyrrolidin-3-ylidenemethyl]-8-oxo-7-[2-(pyridin-4-yl-sulfanyl)-acetylamino]-5-thia-1-aza-bicyclo[4.2.0]oct-2-ene-2-carboxylate]	> 16	> 16	–	–	–	–	> 16	> 16	–
O=C(CSc1cc(Cl)c(Cl)cc1Cl)N[C@@H]1C(=O)N2C(C(=O)O)=C(/C=C3\CCN(C4CCNC4)C3=O)CS[C@H]12 (mixture of isomers) [Ex. 8, Mixture of (E)-(6R,7R)-8-oxo-3-[(R)- and-[(S)-2-oxo-[1,3']bipyrrolidinyl-3-ylidenemethyl]-8-oxo-7-[2-(2,4,5-trichloro-phenylsulfanyl)-acetylamino]-5-thia-1-aza-bicyclo[4.2.0]oct-2-ene-2-carboxylic acid hydrochloride]	> 16	> 16	–	–	–	–	> 16	> 16	–
O=C(C[n+]1ccc(CN2CC/C(=C\C3=C(C(=O)[O-])N4C(=O)[C@@H](NC(=O)CSc5ccc6ccccc6c5)[C@H]4SC3)C2=O)cc1)Nc1ccc(O)c(F)c1 [Ex. 5, (E)-(6R,7R)-3-[1-[1-[(3-Fluoro-4-hydroxy-phenylcarbamoyl)-methyl]-pyridin-1-ium-4-ylmethyl]-2-oxo-pyrrolidin-3-ylidenemethyl]-7-[2-(naphthalen-2-ylsulfanyl)-acetylamino]-8-oxo-5-thia-1-aza-bicyclo[4.2.0]oct-2-ene-2-carboxylat]	> 16	> 16	–	–	–	–	> 16	> 16	–
Cl.O=C(CSc1ccccc1)N[C@@H]1C(=O)N2C(C(=O)O)=C(/C=C3\CCN([C@@H]4CCNC4)C3=O)CS[C@H]12 [Ex. 11, (E)-(6R,7R)-8-Oxo-3-[(R)-2-oxo-[1,3']bipyrrolidinyl-3-ylidenemethyl]-7-(2-phenylsulfanyl-acetylamino)-5-thia-1-aza-bicyclo[4.2.0]oct-2-ene-2-carboxylic acid hydrochloride (1:1)]	16	> 16	–	–	–	–	16	> 16	–
O=C(C[n+]1ccc(CN2CC/C(=C\C3=C(C(=O)[O-])N4C(=O)[C@@H](NC(=O)CSc5ccccc5)[C@H]4SC3)C2=O)cc1)Nc1ccc(O)c(F)c1 [Ex. 9, (E)-(6R,7R)-3-[1-[1-[(3-Fluoro-4-hydroxy-phenylcarbamoyl)-methyl]-pyridin-1-ium-4-ylmethyl]-2-oxo-pyrrolidin-3-ylidenemethyl]-8-oxo-7-(2-phenylsulfanyl-acetylamino)-5-thia-1-aza-bicyclo[4.2.0]oct-2-ene-2-carboxylate]	16 (≈ 22.7 µM)	16 (≈ 22.7 µM)	–	–	–	–	16 (≈ 22.7 µM)	16 (≈ 22.7 µM)	–
O=C(C[n+]1ccc(CN2CC/C(=C\C3=C(C(=O)[O-])N4C(=O)[C@@H](NC(=O)CSc5cc(Cl)c(Cl)cc5Cl)[C@H]4SC3)C2=O)cc1)Nc1ccc(O)cc1 [Ex. 1, (E)-(6R,7R)-3-[1-[1-[(4-Hydroxy-phenylcarbamoyl)-methyl]-pyridin-1-ium-4-ylmethyl]-2-oxo-pyrrolidin-3-ylidenemethyl]-8-oxo-7-[2-(2,4,5-trichloro-phenylsulfanyl)-acetylamino]-5-thia-1-aza-bicyclo[4.2.0]oct-2-ene-2-carboxylate]	> 16	> 16	–	–	–	–	> 16	> 16	–
CCN1CCN(C(=O)N[C@@H](C(=O)N[C@@H]2C(=O)N3C(C(=O)O)=C(CSc4nnnn4C)CS[C@H]23)c2ccc(O)cc2)C(=O)C1=O [Cefoperazone, reference compound]	> 64	> 64	> 64	–	–	–	–	–	–
O=C(C[n+]1ccc(CN2CC/C(=C\C3=C(C(=O)[O-])N4C(=O)[C@@H](NC(=O)CSc5cc(Cl)ccc5Cl)[C@H]4SC3)C2=O)cc1)Nc1ccc(O)c(F)c1 [Ex. 10]	> 16	> 16	–	–	–	–	> 16	> 16	–
O=C(CSc1ccc2ccccc2c1)N[C@@H]1C(=O)N2C(C(=O)O)=C(/C=C3\CCN(Cc4cccc(O)c4)C3=O)CS[C@H]12 [Ex. 7]	16 (≈ 26.6 µM)	16 (≈ 26.6 µM)	2 to 16	–	–	–	16 (≈ 26.6 µM)	16 (≈ 26.6 µM)	2 to 16
C[C@@H](O)[C@H]1C(=O)N2C(C(=O)O)=C(SCCN=CN)C[C@H]12 [Imipenem]	> 16	> 16	–	do not have good activity against MRSA	good β-lactamase inhibitors	broad spectrum of antibacterial activity	–	–	–
O=C(CSc1nc2ccccc2s1)N[C@@H]1C(=O)N2C(C(=O)O)=C(/C=C3\CCN(CC4CC4)C3=O)CS[C@H]12 [Ex. 3, (E)-(6R,7R)-7-[2-(Benzothiazol-2-ylsulfanyl)-acetylamino]-3-(1-cyclopropyl-methyl-2-oxo-pyrrolidin-3-ylidenemethyl)-8-oxo-5-thia-1-aza-bicyclo[4.2.0]-oct-2-ene-2-carboxylic acid]	16 (≈ 28.7 µM)	> 16	–	–	–	–	–	–	–
CO/N=C(\C(=O)N[C@@H]1C(=O)N2C(C(=O)O)=C(COC(C)=O)CS[C@H]12)c1csc(N)n1 [Cefotaxime, reference compound]	> 64	> 64	> 64	–	–	–	–	–	–
O=C(CSc1ccc2ccccc2c1)N[C@@H]1C(=O)N2C(C(=O)O)=C(/C=C3\CCN(C4CC4)C3=O)CS[C@H]12.c1c[nH]cn1 [Ex. 12, (E)-(6R,7R)-3-(1-Cyclopropyl-2-oxo-pyrrolidin-3-ylidenemethyl)-7-[2-(naphthalen-2-ylsulfanyl)-acetylamino]-8-oxo-5-thia-1-aza-bicyclo[4.2.0]oct-2-ene-2-carboxylic acid imidazole salt (1:1)]	16	> 16	–	–	–	–	16	> 16	–
C[C@]1(/C=C\C#N)[C@H](C(=O)[O-])N2C(=O)C[C@H]2S1(=O)=O.[Na+] [compound B, sodium-(Z)-(2S,3S ,R)-3-(2-cyanoethenyl)-3-methyl-4,4,7-trioxo-4-thia-1-aza-bicyclo[3.2.0]heptane-2-carboxylate, reference compound]	–	–	–	–	–	–	> 16	> 16	> 16
O=C(CSc1ccc2ccccc2c1)N[C@@H]1C(=O)N2C(C(=O)[O-])=C(/C=C3\CCN(c4ccc(O)cc4)C3=O)CS[C@H]12.[Na+] [Ex. 13, (E)-(6R,7R)-3-[1-(4-Hydroxy-phenyl)-2-oxo-pyrrolidin-3-ylidenemethyl]-7-[2-(naphthalene-2-ylsulfanyl)-acetylamino]-8-oxo-5-thia-1-aza-bicyclo[4.2.0]oct-2-ene-2-carboxylic acid sodium salt (1:1)]	16	> 16	–	–	–	–	–	–	–
CN(C)CCn1nnnc1SCC1=C(C(=O)O)N2C(=O)[C@@H](NC(=O)Cc3csc(N)n3)[C@H]2SC1 [Cefotiam, reference compound]	> 64	> 64	> 64	–	–	–	–	–	–
NS(=O)(=O)c1ccc(CN2CC/C(=C\C3=C(C(=O)O)N4C(=O)[C@@H](NC(=O)CSc5ccccc5)[C@H]4SC3)C2=O)cc1 [Ex. 14]	16 (≈ 26 µM)	> 16	–	–	–	–	–	–	–
O=C(C[n+]1ccc(CN2CC/C(=C\C3=C(C(=O)[O-])N4C(=O)[C@@H](NC(=O)CSc5nc6ccccc6s5)[C@H]4SC3)C2=O)cc1)Nc1ccc(O)cc1 [Ex. 2, (E)-(6R,7R)-3-[1-[1-[(4-Hydroxy-phenylcarbamoyl)-methyl]-pyridin-1-ium-4-ylmethyl]-2-oxo-pyrrolidin-3-ylidenemethyl]-8-oxo-7-[2-(1-benzothiazol-2-ylsulfanyl)-acetylamino]-5-thia-1-aza-bicyclo[4.2.0]oct-2-ene-2-carboxylate]	> 16	> 16	–	–	–	–	> 16	> 16	–
O=C(CSc1cc(Cl)c(Cl)cc1Cl)N[C@@H]1C(=O)N2C(C(=O)O)=C(/C=C3\CCN(Cc4cccc(O)c4)C3=O)CS[C@H]12 [Ex. 6, (E)-(6R,7R)-3-[1-(3-Hydroxy-benzyl)-2-oxo-pyrrolidin-3-ylidenemethyl]-8-oxo-7-[2-(2,4,5-trichloro-phenylsulfanyl)-acetylamino]-5-thia-1-aza-bicyclo[4.2.0]oct-2-ene-2-carboxylic acid]	16 (≈ 24.4 µM)	> 16	–	–	–	–	16 (≈ 24.4 µM)	> 16	–
